Key:
Experiment in all cases: relative viability (nuclei count vs DMSO), 5 days (fraction); higher = more cells survive
Mirin + Dasatinib = compound: N=C1NC(=O)/C(=C/c2ccc(O)cc2)S1 [Mirin] + Cc1nc(Nc2ncc(C(=O)Nc3c(C)cccc3Cl)s2)cc(N2CCN(CCO)CC2)n1 [Dasatinib] (partner 0.075 µM)
Procedure, shortened: (§1)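 Medians of duplicate plates are given as relative viability. That measure is the nuclei count in treated wells divided by the count in vehicle wells. Counts were taken on 4× images of lung cancer cell lines in 1536-well plates, 5 days after pin-tool dosing the day after seeding with one drug alone or a fixed anchor-drug dose plus five library-drug doses (not always all listed) in √10 steps.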

[1] = compound: CCn1c(-c2nonc2N)nc2cnc(Oc3cccc(NC(=O)c4ccc(OCCN5CCOCC5)cc4)c3)cc21 + CS(=O)(=O)CCNCc1ccc(-c2ccc3ncnc(Nc4ccc(OCc5cccc(F)c5)c(Cl)c4)c3c2)o1 [Lapatinib] (partner 2 µM)
Procedure, shortened: as §1

[2] = compound: CCn1c(-c2nonc2N)nc2cnc(Oc3cccc(NC(=O)c4ccc(OCCN5CCOCC5)cc4)c3)cc21 + C[C@@H](Oc1cc(-c2cnn(C3CCNCC3)c2)cnc1N)c1c(Cl)ccc(F)c1Cl [Crizotinib] (partner 1 µM)
Procedure, shortened: as §1

Cell Line | relative viability (Mirin + Dasatinib; first compound 0.25 µM) | relative viability (Mirin + Dasatinib; first compound 0.7906 µM) | relative viability (Mirin + Dasatinib; first compound 2.5 µM) | relative viability (Mirin + Dasatinib; first compound 7.906 µM) | relative viability (Mirin + Dasatinib; first compound 25 µM) | relative viability ([1]; first compound 0.04 µM) | relative viability ([1]; first compound 0.1265 µM) | relative viability ([1]; first compound 0.4 µM) | relative viability ([1]; first compound 1.265 µM) | relative viability ([1]; first compound 4 µM) | relative viability ([2]; first compound 0.04 µM) | relative viability ([2]; first compound 0.1265 µM) | relative viability ([2]; first compound 0.4 µM) | relative viability ([2]; first compound 1.265 µM) | relative viability ([2]; first compound 4 µM)
NCI-H2170 | 0.551 | 0.498 | 0.519 | 0.489 | 0.468 | 0.261 | 0.278 | 0.274 | 0.258 | 0.27 | 1.03 | 1.21 | 1.15 | 1.17 | 1.26
HCC-366 | 0.677 |  | 0.624 | 0.588 | 0.486 | 1.25 | 1.01 | 0.251 | 0.0431 | 0.0373 | 0.738 | 0.537 | 0.575 | 0.0457 | 0.0363
NCI-H2405 | 0.195 | 0.252 | 0.206 | 0.206 | 0.192 | 1.19 | 0.661 | 0.194 | 0.336 | 0.316 | 0.964 | 0.782 | 0.655 | 0.257 | 0.285
COR-L 105 | 0.347 | 0.328 | 0.382 | 0.288 | 0.261 | 0.327 | 0.412 | 0.278 | 0.288 | 0.297 | 0.663 | 0.571 | 0.371 | 0.273 | 0.264
201T | 0.595 | 0.636 | 0.545 | 0.474 | 0.598 | 1.07 | 0.967 | 0.78 | 0.911 | 0.868 | 1 | 1.02 | 1.03 | 1.03 | 0.964
NCI-H2228 | 0.594 | 0.458 | 0.516 | 0.448 | 0.412 | 1.79 | 0.81 | 0.954 | 0.756 | 0.727 | 0.468 | 0.385 | 0.49 | 0.432 | 0.471
LC-2-ad | 0.588 | 0.504 | 0.668 | 0.386 | 0.368 | 0.992 | 0.968 | 0.578 | 0.435 | 0.412 | 0.52 | 0.478 | 0.435 |  | 0.347
NCI-H2085 | 0.229 | 0.207 | 0.28 | 0.252 | 0.237 | 0.865 | 0.75 | 0.684 | 0.602 | 0.714 | 0.988 | 0.797 | 0.661 | 0.741 | 0.72
NCI-H358 | 0.2 | 0.16 | 0.161 | 0.134 | 0.13 | 0.474 | 0.479 | 0.29 | 0.525 | 0.316 | 0.561 | 0.661 | 0.522 | 0.467 | 0.281
H3255 | 0.383 | 0.315 | 0.347 | 0.275 | 0.381 | 0.293 | 0.305 | 0.237 | 0.271 | 0.256 | 1.13 | 0.815 | 0.725 | 0.49 | 0.637
NCI-H23 | 0.934 |  | 0.77 | 0.604 | 0.555 | 1.34 | 1.17 |  | 0.688 | 0.698 | 0.812 | 0.82 |  | 0.439 | 0.305
CAL-12T | 0.489 |  | 0.503 | 0.347 | 0.28 | 1.25 | 0.817 | 0.849 |  | 0.685 | 0.74 | 0.5 | 0.371 | 0.298 | 0.215
A-427 | 0.766 |  | 0.78 | 0.714 | 0.632 | 1.2 | 1.04 | 0.903 | 0.993 | 0.582 | 0.966 | 1.08 | 0.846 | 0.998 | 0.879
HARA | 0.194 |  | 0.222 | 0.247 | 0.195 | 0.826 | 0.732 | 0.27 | 0.217 | 0.213 | 1.15 | 1.08 | 1.1 | 0.335 | 0.241
NCI-H1793 | 0.481 |  | 0.391 | 0.409 | 0.344 | 0.555 | 0.569 | 0.582 | 0.414 | 0.418 |  |  |  |  | 
NCI-H1623 | 0.46 | 0.426 | 0.542 | 0.44 | 0.497 |  |  |  |  |  |  |  |  |  | 
NCI-H2009 | 0.292 | 0.341 | 0.323 | 0.227 | 0.139 | 1.02 | 0.957 | 0.575 | 0.312 | 0.314 | 0.987 | 0.847 | 0.754 | 0.41 | 0.258
ABC-1 | 0.682 | 0.525 | 0.62 | 0.536 | 0.375 | 1.3 | 0.997 |  |  | 1.08 | 1.7 | 0.973 | 1 | 0.608 | 0.396
IA-LM |  |  |  |  |  | 1.14 | 0.915 | 1.11 | 0.913 | 0.909 | 1.01 | 0.831 | 0.859 | 0.699 | 0.758
NCI-H441 | 0.662 | 0.556 | 0.622 | 0.59 | 0.439 |  |  |  |  |  | 1.02 | 0.659 | 0.606 | 0.479 | 0.431
NCI-H1792 | 0.768 | 0.86 | 0.777 |  | 0.632 | 1 | 0.869 |  | 0.567 | 0.793 | 1.08 | 0.99 |  | 0.592 | 0.841
LXF-289 | 0.26 | 0.214 | 0.202 | 0.207 | 0.202 | 1.04 | 1.02 | 0.856 | 0.737 | 0.645 | 0.839 | 0.871 | 0.821 | 0.598 | 0.549
HCC-827 | 0.407 | 0.336 | 0.301 | 0.451 | 0.334 | 0.195 | 0.273 | 0.197 | 0.251 | 0.21 | 0.913 | 0.903 | 0.951 | 0.892 | 0.803
EMC-BAC-2 | 0.328 | 0.324 | 0.349 | 0.271 | 0.249 | 0.931 | 0.955 | 0.543 | 0.645 | 0.588 | 0.904 | 0.823 | 0.789 | 0.733 | 0.701
